In general, fraction remaining refers to what is left of the initial amount, in per cent. Lower therefore signals a greater loss.

A short description of data set [1]: in vitro. To be noted: human, liver microsomes. (Liver microsomes are vesicles of endoplasmic reticulum, rich in cytochrome P450 enzymes.)
The nature of data set [2]: in vitro. The note with it: human, liver microsomes. This is another data set of the same source.

As for `Cc1nc2n(c(=O)c1CCN1CCC(c3noc4cc(F)ccc34)CC1)CCCC2O` (centres undefined) [PALIPERIDONE], the share remaining at 0.5 h, 2 µM in data set [1] was 100%. In data set [2], the share remaining at 1 h, 2 µM was 100%.

On to `Cc1nc2n(c(=O)c1CCN1CCC(c3noc4cc(F)ccc34)CC1)CCCC2` [RISPERIDONE], for which the fraction remaining at 0.5 h, 2 µM in data set [1] worked out at 100%. Further, in data set [2], the share remaining at 1 h, 2 µM was 75%.

(Values after ChEMBL document CHEMBL4043141, “Synthesis and biological investigation of tetrahydropyridopyrimidinone derivatives as potential multireceptor atypical antipsychotics” (Bioorg Med Chem, 2017).)
